Laboratory results published in US20030175848A1, “Substituted dithiobisnitrobenzenes and their applications” (Institut Pasteur De Lille, priority 1998, published 2003).
Where two headings read alike, the source gives them in different places.

Legend:
[1] = biological target: T1, trypanothione reductase from Trypanosoma cruzi (TcTR) (Trypanosoma cruzi, UniProt P28593); set-up: made in house; host or cells: Escherichia coli SG5 carrying pIBITczTR; details: cited from earlier work
[2] = biological target: T2, human thioredoxin reductase (hTrxR) (Homo sapiens, UniProt Q16881); details: substrate of native hTrxR (placenta), cited from earlier work; for Km: references [29], [38]
T2 construct: U of native hTrxR; from tissue; host or cells: human placenta
T2 sequence (Q16881 151-649 limits assumed): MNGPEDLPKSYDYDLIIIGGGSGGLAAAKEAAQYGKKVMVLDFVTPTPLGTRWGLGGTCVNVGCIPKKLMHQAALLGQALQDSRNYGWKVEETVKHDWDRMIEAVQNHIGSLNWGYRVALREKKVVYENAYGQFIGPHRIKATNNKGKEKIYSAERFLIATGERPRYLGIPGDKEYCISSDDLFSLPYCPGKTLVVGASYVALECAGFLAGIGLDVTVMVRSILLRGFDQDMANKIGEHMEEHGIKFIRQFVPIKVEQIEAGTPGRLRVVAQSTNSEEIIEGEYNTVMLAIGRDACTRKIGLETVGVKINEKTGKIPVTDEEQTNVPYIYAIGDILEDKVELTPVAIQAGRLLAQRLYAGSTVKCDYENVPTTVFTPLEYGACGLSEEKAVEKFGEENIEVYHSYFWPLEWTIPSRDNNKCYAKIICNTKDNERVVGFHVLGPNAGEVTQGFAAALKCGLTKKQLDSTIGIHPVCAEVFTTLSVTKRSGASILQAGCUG

[3] = biological target: T3, Native hTrxR (lung adenocarcinoma cells) (Homo sapiens, UniProt Q16881); details: substrate of native hTrxR (lung adenocarcinoma cells); reference [22]; cited from earlier work
T3 construct: host or cells: human lung adenocarcinoma cells (endogenous enzyme, purified)
T3 sequence (Q16881 151-649 limits assumed): T2 sequence (Q16881 151-649 limits assumed)

[4] = biological target: T4, thioredoxin reductase from Plasmodium falciparum (PfTrxR) (Plasmodium falciparum, UniProt Q25861); details: cited from earlier work
T4 construct: made in house; host or cells: E. coli SG5 (glutathione reductase deficient)
T4 sequence (Q25861 1-541): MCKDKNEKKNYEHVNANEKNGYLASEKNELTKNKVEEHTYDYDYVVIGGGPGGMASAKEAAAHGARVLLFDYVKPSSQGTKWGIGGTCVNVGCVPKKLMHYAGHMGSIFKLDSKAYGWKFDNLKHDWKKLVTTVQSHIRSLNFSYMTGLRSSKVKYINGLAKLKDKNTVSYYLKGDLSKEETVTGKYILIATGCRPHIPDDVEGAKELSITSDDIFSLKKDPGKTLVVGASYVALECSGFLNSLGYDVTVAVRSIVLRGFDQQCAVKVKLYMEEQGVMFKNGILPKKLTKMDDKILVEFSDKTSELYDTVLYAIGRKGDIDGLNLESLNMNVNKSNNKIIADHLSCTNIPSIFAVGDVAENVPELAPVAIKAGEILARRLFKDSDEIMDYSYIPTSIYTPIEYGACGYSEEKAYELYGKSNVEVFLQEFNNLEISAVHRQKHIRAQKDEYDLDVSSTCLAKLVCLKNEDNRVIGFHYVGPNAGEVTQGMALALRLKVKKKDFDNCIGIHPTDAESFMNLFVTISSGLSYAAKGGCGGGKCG

[5] = biological target: T4, thioredoxin reductase from Plasmodium falciparum (PfTrxR); test: Kinetic parameters of substrates with recombinant PfTrxR; type: biochemical; details: substrate of recombinant PfTrxR; 25° C., buffer A pH 7.25, 0.2 mM NADPH
Protocol: […] Using the DTNB test, one TrxR unit is defined as the NADPH-dependent production of […] of 5-thio-2-nitrobenzoate (ε412 nm=13.6 mM^−1.cm^−1). The TrxR concentrations are determined by measuring subunits containing FAD at 450 nm (ε=11.3 mM^−1.cm^−1).

[6] = biological target: T2, human thioredoxin reductase (hTrxR); test: Kinetic parameters of substrates with native hTrxR (placenta); type: biochemical; details: substrate of native hTrxR (placenta), 25° C., buffer A pH 7.25, 0.2 mM NADPH
Protocol: The human thioredoxin reductase (hTrxR) is purified from placenta as specified in J. E. Oblong et al., Biochemistry, 1993, 32, 7271-7277.
The enzyme is added to a reaction mixture comprising 100 mM potassium phosphate, 2 mM EDTA, pH 7.4 and 3 mM DTNB; after the addition of 200 μM NADPH, the increase in the absorbence is measured at 412 nm and at 25° C. Using the DTNB test, one TrxR unit is defined as the NADPH-dependent production of […] of 5-thio-2-nitrobenzoate (ε412 nm=13.6 mM^−1.cm^−1). The TrxR concentrations are determined by measuring subunits containing FAD at 450 nm (ε=11.3 mM^−1.cm^−1).

[7] = biological target: T1, trypanothione reductase from Trypanosoma cruzi (TcTR); test: Kinetic parameters of substrates with recombinant trypanothione reductase
Protocol: The TcTR concentration is determined by measuring the number of subunits containing FAD at 461 nm (ε=11.3 mM^−1×cm^−1); the enzymatic activity is tested as specified in (28). One TR unit corresponds to 1 μmol of T(S)2 reduced per minute at 25° C. in a buffer A (20 mM Hepes, pH 7.25 containing 1 mM EDTA and 0.15 M KCl).
The enzyme stock solutions used for the kinetic determinations are pure (verification in SDS-PAGE) and have a specific activity of 137 U/mg in the T(S)2 reduction test performed in the presence of 500 μM NADPH and 518 μM T(S)2 in a buffer A.
All the kinetic studies are carried out in the same buffer at 25° C., in the presence of 200 μM of NADPH.
All the tests were carried out at 25° C. in 20 mM HEPES, 1 Mm EDTA, 150 mM KCl, at pH 7.25 (buffer A) and in the presence of 0.2 mM NADPH.

[8] = substrate of recombinant TcTR, reference [1]
[9] = substrate of recombinant PfTrxR, reference [26]

T1 sequence (P28593 whole entry): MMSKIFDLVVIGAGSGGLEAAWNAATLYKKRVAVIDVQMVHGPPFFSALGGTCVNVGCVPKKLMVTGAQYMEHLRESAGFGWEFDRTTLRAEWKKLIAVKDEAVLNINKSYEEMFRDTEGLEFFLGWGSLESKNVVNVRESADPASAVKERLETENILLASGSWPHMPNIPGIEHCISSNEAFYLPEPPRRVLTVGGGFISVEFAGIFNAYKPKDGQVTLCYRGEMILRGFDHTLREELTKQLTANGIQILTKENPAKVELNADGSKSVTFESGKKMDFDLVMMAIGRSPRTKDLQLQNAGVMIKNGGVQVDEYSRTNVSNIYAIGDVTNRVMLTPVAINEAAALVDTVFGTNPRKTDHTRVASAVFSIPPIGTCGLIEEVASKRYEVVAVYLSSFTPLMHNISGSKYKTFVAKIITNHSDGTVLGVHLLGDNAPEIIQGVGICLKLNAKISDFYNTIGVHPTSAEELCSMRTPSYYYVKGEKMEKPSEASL

N[C@@H](CCC(=O)N[C@H]1CSSC[C@H](NC(=O)CC[C@H](N)C(=O)O)C(=O)NCC(=O)NCCCNCCCCNC(=O)CNC1=O)C(=O)O [TS2, oxidized N^1, N^8-bis(glutathionyl)-spermidine]
Kcat [1, 8]: 240 s⁻¹
Km [1, 8]: 45 µM

E. coli Trx: thioredoxin (Trx) of E. coli, substrate of thioredoxin reductase
Km [2]: 20 µM
Kcat [3]: 5.6 s⁻¹
Km [3]: 34 µM
Kcat [4, 9]: >5 s⁻¹
Km [4, 9]: 66 µM

O=C(O)c1cc(SSc2ccc([N+](=O)[O-])c(C(=O)O)c2)ccc1[N+](=O)[O-] [DTNB, 5,5′-dithiobis(2-nitrobenzoic) acid]
Kcat ([2]; reference [38]): 67 s⁻¹
Km [2]: 400 µM
suitable as substrate (words spread over the Km, Kcat and Kcat/Km cells) ([1]; recombinant TcTR, reference [13]): Not
Km ([4]; substrate of PfTrxR, stated in text): ~1000 µM
Kcat [4, 9]: 7 s⁻¹
Km [4, 9]: 1090 µM

CN1CCN(C(=O)c2cc(SSc3ccc([N+](=O)[O-])c(C(=O)N4CCN(C)CC4)c3)ccc2[N+](=O)[O-])CC1 [Compound 3]
Kcat [5]: 6 s⁻¹
Kcat [6]: 38 s⁻¹
Km ([6]; read-out: Km): 10 µM
suitable as substrate (words spread over the Km, Kcat and Kcat/Km cells) ([7]; recombinant TcTR, 25° C., buffer A, 0.2 mM NADPH): Not

CN(C)CCCNC(=O)c1cc(SSc2ccc([N+](=O)[O-])c(C(=O)NCCCN(C)C)c2)ccc1[N+](=O)[O-] [Compound 1]
Km [6]: 7 µM
reduction of Km compared with trypanothione disulphide ([7]; substrate for TR): 30%
